Reference: PubChem BioAssay (NCI)
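All cell lines were grown in 96-well plates and treated with compound for 48 hours. TGI denotes the concentration required for complete inhibition of growth.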

What was measured:
Assay in all cases: NCI-60 cell line screen, 48 h
MDA-N = system: MDA-N
TK-10 renal = system: TK-10 renal
SF-295 CNS = system: SF-295 CNS
ACHN renal = system: ACHN renal
EKVX NSCLC = system: EKVX NSCLC
SN12C renal = system: SN12C renal
MOLT-4 leukemia = system: MOLT-4 leukemia
NCI-H226 lung = system: NCI-H226 lung
HCT-116 colon = system: HCT-116 colon
SW-620 colon = system: SW-620 colon

Structure (SMILES)	TGI (MDA-N) [µM]	TGI (TK-10 renal) [µM]	TGI (SF-295 CNS) [µM]	TGI (ACHN renal) [µM]	TGI (EKVX NSCLC) [µM]	TGI (SN12C renal) [µM]	TGI (MOLT-4 leukemia) [µM]	TGI (NCI-H226 lung) [µM]	TGI (HCT-116 colon) [µM]	TGI (SW-620 colon) [µM]
COC(=O)CCc1ccc2c(c1)CC1(C2)Cc2ccc(CCC(=O)OC)cc2C1	> 100	> 100	> 100	> 100	> 100	> 100	> 100	> 100	> 100	
COc1ccc(NC(=O)C2=C(SC)C(=O)N=C2N)cc1		> 100	> 100	> 100	> 100		> 100	> 100	> 100	> 100
COc1cc2c(c(OC)c1OC)-c1ccc(SC)c(=O)cc1[C@@H](NC(=O)c1ccc(C#N)cc1)CC2		> 100	< 0.01	> 100	> 100	> 77.8	> 53.8	< 0.01	12.6	> 100
CC1=CC(c2ccccc2)n2c(nc3cc4ccccc4cc32)N1 (stereo not given)	> 100	> 100	> 100	> 100	> 100		> 100	> 100	> 100	> 100
COc1cc2cc3c4c(cc(OC)c(OC)c4c2cc1OC)CCN3C(=O)OCCBr		> 100	> 100	> 100	> 100	> 100	> 100	2.42	> 100	> 100
c1ccc(COc2ncccc2C2SCCCS2)cc1	> 100	> 100	> 100	> 100	> 100	> 100		> 100	> 100	> 100
CSc1s[s+]c(SC)c1-c1ccccc1	32.7	32.4	36.9	32.8	33	35	> 100		29.5	34.9
COc1ccc([C@@]23CCC(=O)C[C@@H]2N(C)CC3)cc1OC	> 100	> 100	> 100	> 100	> 100		> 100	> 100		> 100
C=C1C(=O)O[C@H]2C(=O)[C@H](C)CCC[C@@](C)(O)/C=C\C[C@@]3(C)O[C@@H]3C[C@@H]12	34.8	15.1	17.5	20.5		31.3		> 100	20.2	22.1
COc1cccc(N2N=C3c4ccccc4-n4c(nc5ccccc54)C3C2N)c1 (stereo not given)	> 100	> 100	> 100	> 100	> 100	> 100			> 100	> 100
C=CC1(CCC(Br)C(C)(C)Cl)CO1 (stereo not given)	> 10	> 10	> 10	> 10	> 10	> 10	> 10		> 10	> 10
